In brackets after ≈: the same amount, converted by molar mass. Non-standard residues stand in square brackets, D forms with d. dPhg = N[C@@H](C(=O)O)c1ccccc1; Phg = N[C@H](C(=O)O)c1ccccc1; code Z = not defined here; Orn = NCCC[C@H](N)C(=O)O; Mpa = O=C(O)CCS
Key:
[1] = test system: S. pneumoniae; test: Agar well diffusion; settings: 40 ul of 1 mg/ml in DMSO
[2] = test system: Candida albicans ATCC 10231; test: Antifungal MIC in Sabouraud broth; type: cell-based; settings: 25° C., 48 h
Description: (§1) The minimal inhibitory concentration (MIC) was determined using a method with Sabouraud broth (Becton Dickinson) and an initial inoculum 10^3-10^4 cfu/ml. Polypropylene 96-well plates (Nunc) were incubated at 25° C. for 48 h (for Candida albicans ATCC 10231) or 7 days (for Aspergillus niger ATCC 16404). The MIC was taken as the lowest drug concentration at which noticeable growth was inhibited. The experiments were performed in duplicate.

[3] = test system: Aspergillus niger ATCC 16404; test: Antifungal MIC in Sabouraud broth; type: cell-based; settings: 25° C., 7 days
Description: as §1

[4] = test system: cysteine proteases; test: Protease inhibitory activity; type: biochemical
[5] = Solubility; type: physicochemical
[6] = test system: lethal strept challenge; test: Protection against lethal strept challenge; type: in vivo; settings: mouse
[7] = test system: HSV-1 F; test: Virus inhibition analysis and plaque counting test in GMK AH 1 cells; type: cell-based, Herpes Simplex Virus; settings: 10 PFU/cell, 48 hours, Cp1 0.4 mM in 1% DMSO, Acyclovir 1.0 mM
[8] = test system: S. aureus; test: MIC by broth dilution; type: cell-based; settings: growth media without DMSO, solubility problems; true MIC might be lower
Description: (§2) The in vitro antibacterial activity of drugs is commonly estimated by testing their minimal inhibitory (MIC) and bactericidal (MBC) concentrations.
(§3) MIC/MBC determinations were performed by broth dilution according to established procedures, well known for a person skilled in the art.

[9] = test system: E. coli and other Gram-negatives; test: Agar well diffusion; settings: for antibacterial effect, E. coli and other Gram-negatives: agar well diffusion, 40 ul of 1 mg/ml in DMSO
[10] = test system: α-haemolytic Streptococci; test: Agar well diffusion; settings: 40 ul of 1 mg/ml in DMSO
[11] = test system: L. monocytogenes; test: Agar well diffusion; settings: 40 ul of 1 mg/ml in DMSO
[12] = test system: Staphylococci incl. multi-resistant MRSA; test: Agar well diffusion; settings: for antibacterial effect, Staphylococci incl. multi-resistant MRSA: agar well diffusion, 40 ul of 1 mg/ml in DMSO; for growth inhibition of approximately 100 strain of MRSA: clinical isolates, several with additional antibiotic resistance markers
[13] = test system: labial herpes; test: Topical application to beginning labial herpes outbreak; type: in vivo; settings: Cp1 in softening cream, 0.2 ml solution (0.1 g/l) on the lip of a person; performed twice
[14] = test system: poliovirus type 1; type: cell-based; settings: GMK AH 1 cells, 1 PFU/cell, 48 hours; Cp1 0.4 mM in 1% DMSO
[15] = test system: Streptococcus: group B; test: Agar well diffusion; settings: 40 ul of 1 mg/ml in DMSO
[16] = test system: Streptococcus: group A; test: Agar well diffusion; settings: 40 ul of 1 mg/ml in DMSO
[17] = test system: Streptococcus: group G; test: Agar well diffusion; settings: 40 ul of 1 mg/ml in DMSO
[18] = test system: GAS; test: MIC by broth dilution; type: cell-based, group A Streptococci; settings: growth media without DMSO, solubility problems; true MIC might be lower
Description: as §2, §3

[19] = test system: CNS incl. resistant and multiresistant MRSE; test: Agar well diffusion; settings: 40 ul of 1 mg/ml in DMSO
[20] = test system: Streptococcus: group C; test: Agar well diffusion; settings: 40 ul of 1 mg/ml in DMSO
[21] = test system: bacteria; test: Anti-bacterial activity (tables of particularly interesting compounds); type: cell-based; parameters: key: + indicates that the compound show effects

In the case of CC(C)CC(NC(=O)C(CCCN=C(N)N)NC(=O)OCc1ccccc1)C(=O)N[C@H](CNC(=O)/C=C/c1ccccc1)C(C)C (stereo in doubt) [Cp1, (2S)-2-[(N^α-Benzyloxycarbonyl-arginyl-leucyl)-amino]-1-trans-cinnamoylamino-3-methylbutane], the “antibacterial effect, S. pneumoniae” value [1] is reported as “+”, the “MIC Candida albicans ATCC 10231” value [2] is reported as 32 µg/ml and the “MIC Aspergillus niger ATCC 16404” value [3] is reported as 64 µg/mL (≈ 101 µM). The protease inhibitory activity [4] was “devoid of any detectable protease inhibitory activity”, the “solubility in DMSO” value ([5]; DMSO) was “soluble in DMSO to high concentrations” and the solubility in water ([5]; water) was “less soluble in water”. For the same compound, the “protective capacity for lethal strept challenge” value [6] was “strong protective capacity”, the HSV-1 plaques [7] was 1.0 × 10^3 and the “MIC for S. aureus” value [8] was “approximately 16 mg/L”. For the same compound, the “activity against gram-negative bacteria” value [9] was “low or no activity”, the “antibacterial effect, E. coli and other Gram-negatives” value [9] was “−” and the “antibacterial effect, α-haemolytic Streptococci” value [10] was “−”. For the same compound, the “antibacterial effect, L. monocytogenes” value [11] was “+”, the “antibacterial effect, Staphylococci incl. multi-resistant MRSA” value [12] was “+” and the “growth inhibition of approximately 100 strain of MRSA” value [12] was “strongly inhibited in their growth”. The “time after which symptoms of beginning labial herpes outbreak was gone” value [13] was “Cp1 was added to a softening cream and 0.2 ml solution (0.1 g/l) was applied to an area of a beginning labial herpes outbreak on the lip of a person. After 3-4 hours the symptoms was gone. The experiment was performed twice”, the Polio plaques [14] was 2.6 × 10^5 and the “antibacterial effect, Streptococcus: group B” value [15] was “+”. The “antibacterial effect, Streptococcus: group A” value [16] was “+”, the “antibacterial effect, Streptococcus: group G” value [17] was “+” and the “MIC for GAS” value [18] was “approximately 16 mg/L”. The “antibacterial effect, CNS incl. resistant and multiresistant MRSE” value [19] was “+” and the “antibacterial effect, Streptococcus: group C” value [20] was “+”.
For CC(=O)NC(Cc1ccccc1)C(=O)NCC(NC(=O)C(CC(C)C)NC(=O)C(CCCNC(=N)N)NC(=O)OCc1ccccc1)C(C)C (stereo not shown) [[AcPhe^5]Cp1], the “antibacterial effect, S. pneumoniae” value [1] was “+”, the “MIC Candida albicans ATCC 10231” value [2] was 512 µg/mL (≈ 737 µM) and the “MIC Aspergillus niger ATCC 16404” value [3] was 256 µg/mL (≈ 368 µM). For the same compound, the “antibacterial effect, E. coli and other Gram-negatives” value [9] was “−”, the “antibacterial effect, α-haemolytic Streptococci” value [10] was “−” and the “antibacterial effect, L. monocytogenes” value [11] was “+”. For the same compound, the “antibacterial effect, Staphylococci incl. multi-resistant MRSA” value [12] was “+”, the “growth inhibition of approximately 100 strain of MRSA” value [12] was “strongly inhibited in their growth” and the “antibacterial effect, Streptococcus: group B” value [15] was “+”. For the same compound, the “antibacterial effect, Streptococcus: group A” value [16] was “+”, the “antibacterial effect, Streptococcus: group G” value [17] was “+” and the “antibacterial effect, CNS incl. resistant and multiresistant MRSE” value [19] was “+”. For the same compound, the “antibacterial effect, Streptococcus: group C” value [20] was “+”.
For “Mpa-Phe-Arg-Leu-Val-Phe-Cys-NH2 ([Mpa]FRLVFC-NH2; cysteine pairing not given here)”, the “Activity Anti-bacterial” value [21] was “+”.
For “Z-Arg-Leu-Val-Phe-NH2 ({code Z}-RLVF-NH2; reading uncertain; also: printed as Z-Arg-Leu-Val-Phe-NH2)”, the “Activity Anti-bacterial” value [21] was “+”.
In the case of Z-Arg-Leu-Val-cinnamoylamide, the “Activity Anti-bacterial” value [21] is reported as “+”.
With cyclo(FRLVF[Orn]LV) the “Activity Anti-bacterial” value [21] was “+”.
For cyclo(F[Orn]LVF[Orn]LV), the “Activity Anti-bacterial” value [21] was “+”.
For “cyclo(Phe-Arg-Leu-Val-Phe-Arg-Leu-Val) (FRLVFRLV; cyclic; printed: Phe-Arg-Leu-Val-Phe-Arg-Leu-Val)”, the “Activity Anti-bacterial” value [21] was “+”.
In the case of “cyclo(Tyr-Arg-Leu-Val-Tyr-Arg-Leu-Val) (YRLVYRLV; cyclic; printed: Tyr-Arg-Leu-Val-Tyr-Arg-Leu-Val)”, the “Activity Anti-bacterial” value [21] is reported as “+”.
In the case of cyclo([Phg]RLV[Phg]RLV), the “Activity Anti-bacterial” value [21] is reported as “+”.
With cyclo([dPhg]RLV[dPhg]RLV) the “Activity Anti-bacterial” value [21] was “+”.
For cyclo([dY]RLV[dY]RLV), the “Activity Anti-bacterial” value [21] was “+”.
